Experimental data reported in US20250230226A1, “PLXDC1/PLXDC2 ACTIVATORS AND THEIR USE IN THE TREATMENT OF BLOOD VESSEL DISORDERS” (THE REGENTS OF THE UNIVERSITY OF CALIFORNIA, priority 2019, published 2025).

How the values were obtained:
PLXDC1 = molecular target: T1, PLXDC1 (Homo sapiens, UniProt Q8IUK5); experiment: Gfi1b promotor luciferase receptor activation assay, PLXDC1-expressing cells (FIG. 18A, 19); assay type: cell-based; conditions: compound treatments 1 day; basal activity defined as 1
T1 construct: expressed in transfected cells
T1 sequence (Q8IUK5 19-500): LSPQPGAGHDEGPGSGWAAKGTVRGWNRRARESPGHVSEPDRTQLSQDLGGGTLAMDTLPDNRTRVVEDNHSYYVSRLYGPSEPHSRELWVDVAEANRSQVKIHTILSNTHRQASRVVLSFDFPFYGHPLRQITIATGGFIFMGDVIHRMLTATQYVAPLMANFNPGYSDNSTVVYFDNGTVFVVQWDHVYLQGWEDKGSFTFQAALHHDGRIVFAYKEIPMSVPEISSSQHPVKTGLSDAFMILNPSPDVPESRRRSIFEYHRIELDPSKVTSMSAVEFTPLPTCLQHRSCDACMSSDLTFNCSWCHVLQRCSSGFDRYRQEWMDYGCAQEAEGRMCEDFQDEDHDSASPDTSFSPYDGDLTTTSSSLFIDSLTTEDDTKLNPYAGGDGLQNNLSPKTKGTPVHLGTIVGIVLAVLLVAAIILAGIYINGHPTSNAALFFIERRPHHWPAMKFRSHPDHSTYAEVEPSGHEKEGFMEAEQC
From the text: FIG. 18A-B show activation of PLXDC1 and PLXDC2 by small molecules. […] All compound treatments were done for 1 day. Basal promotor activity of the PLXDC1-expressing cells is defined as 1.
Basal promotor activity of the PLXDC1-expressing cells is defined as 1. The basal activity of PLXDC1-expressing cells (Control) are higher than cells without PLXDC1, consistent promotor activation by the ectopic expression of the receptor without ligands.
By linking its promotor to a luciferase reporter gene, this example developed a PLXDC1 receptor activation assay.

tumor endothelial cells = experiment: Ex vivo model of tumor angiogenesis, comparison with anti-VEGF drug and PEDF (FIG. 4); assay type: cell-based; conditions: cells grown 5 days, test reagents added for 2 days
Description: FIG. 4A-F. A comparison between an anti-VEGF drug, PEDF and two compounds that target PLXDC1/PLXDC2 in an ex vivo model of tumor angiogenesis. […] Tumor endothelial cells were grown for 5 days before test reagents were added for 2 days. Green cells are live cells and red cells are dead cells.
• 1. The day before the experiment, all necessary tools were sprayed with 70% ethanol and sterilized under UV light overnight, including blade, dissecting and micro-dissecting scissors and […]. 24-well dishes were placed at 4° C. to pre-chill plates and Matrigel was thawed, 24 hours before tumor dissection. • 2. 70% ethanol was sprayed on working bench. Two sterile petri dishes were prepared with 10 ml sterile PBS. The following steps 3 and 4 are necessary for mouse tumor models. For fresh human tumor, steps 3 and 4 are skipped. • 3. The tumor-bearing mice were euthanized. 70% ethanol was sprayed on the mouse and the tumor was removed using sterilized dissecting tools (avoid the fur). The tumor was rinsed in petri dish with sterile PBS to remove ethanol and fur. […] When the assay was ready to be analyzed for cell death (e.g., 48 hours after drug addition), the dye mixture was prepared by mixing 6 μl of green dye to stain live cells (5 mg/ml Fluorescein diacetate or FDA in DMSO) with 30 μl of red dye (2.5 mg/ml Propidium iodide or PI in PBS) to stain dead cells in an Eppendorf tube. […]

[1] = test system: choroidal endothelial cells; experiment: Ex vivo model of choroidal angiogenesis (FIG. 2); assay type: cell-based
Description: FIG. 2A-E. Comparison of compound 369 (Table 3) with the current anti-angiogenic drug in an ex vivo model of choroidal angiogenesis. A. A schematic diagram of the timeframe of the experiment. […] Treatment lasts for two days before cell death and survival are analyzed. B. Control experiment without any drug treatment at day 7. The white circle in the middle delineates the piece of choroid/RPE that was embedded to initiate neovascularization. C. […] Eylea was added at 10 μM. […] The compound was added at 10 μM. In B-D, green cells are live cells and red cells are dead cells. E. Quantitation of the experiments described in B-D. The amount of new endothelial cells in the untreated control is defined as 100%.

tumor blood vessels = experiment: Systemic administration in tumor-bearing mouse (FIG. 7); assay type: in vivo
From the text: FIG. 7A-D. Systemic administration of a compound that targets PLXDC1 and PLXDC2 kills existing tumor blood vessels and leads to massive tumor necrosis. […] The high specificity of the treatment is illustrated by the healthy skin blood vessels that cover the dead yellow tumor. C. The tumor from control mouse in A is cut open to reveal that it is rich in tumor blood vessels and is a live tumor. D. The tumor from compound-treated mouse in B is cut open to reveal a lack of tumor blood vessels and a necrotic tumor with yellow cheese-like appearance (coagulative necrosis). Coagulative necrosis is exactly what is expected for a treatment that can kill existing tumor blood vessels to block major blood supplies to the tumor. Precise and efficient killing of tumor blood vessels to cause massive tumor death by necrosis, which has been achieved by the compound 369 targeting PLXDC1/PLXDC2, cannot be achieved by any existing drugs or known antiangiogenic factors.
The tumor died of massive coagulative necrosis, exactly the kind of cell death caused by killing blood vessels.

[2] = test system: LL/2 lung cancer tumor endothelial cells; experiment: Lung LL2 ex vivo model of tumor angiogenesis; assay type: cell-based, mouse; conditions: for 48 hrs (morphology observations): LL/2 tumor endothelial cells; for Cell death: drug treatment for two days, ratio of red area to total endothelial cell area; for cytotoxicity at 40 µM: Mus musculus, Endothelial cell, 48 h, read-out: Cell death
Method in brief: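 LL2 mouse tumor fragments (~0.075 mm³) embedded in Matrigel and cultured in endothelial growth medium at 37 °C until endothelial outgrowth (~4 days) before treatment. Cell death assessed e.g. 48 h after drug by fluorescein diacetate (live)/propidium iodide (dead) staining and red/green fluorescence imaging.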

[3] = test system: CT26.CL25 colon cancer tumor endothelial cells; experiment: Colon CT26 ex vivo model of tumor angiogenesis; assay type: cell-based, mouse; conditions: for 48 hrs (morphology observations after 48 hours): Conc. 40 μm; for cytotoxicity at 40 µM: Mus musculus, Endothelial cell, 48 h, read-out: Cell death
Method in brief: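 Pieces of CT26 mouse tumor (~0.075 mm³) embedded in Matrigel and cultured in endothelial growth medium at 37 °C, 5% CO2 until endothelial outgrowth appeared (about 7 days), then treated. About 48 h after drug addition, live/dead staining with fluorescein diacetate and propidium iodide was imaged in green and red channels.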

Row | Compound | 48 hrs (morphology observations after 48 hours) [3] | cytotoxicity at 40 µM [3] [%] | 48 hrs (morphology observations) ([2]; 40 μm) | cytotoxicity at 40 µM [2] [%] | Cell death ([2]; 40 μm) [%] | further results
1 | O=c1[nH]cc(F)c(=O)[nH]1 [Fluorouracil, 5-fluorouracil, reference compound] |  |  |  |  |  | Gfi1b promotor activity in PLXDC1-expressing cells (PLXDC1): does not activate this promoter
2 | CCCCCCCCCCCCOc1ccc(S(=O)(=O)c2cnc3ccc([S+](C)[O-])cc3c2N2CCC(N3CCC(N4CCN(CCO)CC4)CC3)CC2)cc1F (stereo not drawn) [Compound 369] |  |  |  |  |  | Killing of existing tumor endothelial cells (tumor endothelial cells): can kill existing tumor endothelial cells; Killing of endothelial cells in choroidal angiogenesis ([1]; added at 10 μM at day 7, treatment two days): can kill the endothelial cells; Effect on healthy tissue (choroid and retinal pigment epithelium) ([1]; added at 10 μM, two days): without affecting the healthy tissue; Killing of existing tumor blood vessels and tumor death (tumor blood vessels): can kill existing tumor blood vessels and lead to strong tumor death; 48 hrs (morphology observations) ([2]; 20 μm): * (50% or less of cells vesicularize in cell shape); Cell death ([2]; 20 μm): 20%
3 | CCCCOc1ccc(S(=O)(=O)c2cnc3ccc(C(=O)OCC)cc3c2N2CCC(N3CCC(c4ccccc4)CC3)CC2)cc1 [Compound 215] | 0 | 20 | 0 | 30 |  | 
4 | CCc1ccc(S(=O)(=O)c2cnc3ccc(OC(F)(F)F)cc3c2NN2CCN(C)CC2)cc1 [Compound 50] | *** (100% of endothelial cells vesicularize in cell shape) | 100 | *** (more than 50% but less than 100% of endothelial cells vesicularize in cell shape) |  | 90 | 
5 | CCCCOc1ccc(S(=O)(=O)c2cnc3ccc(C(=O)OCC)cc3c2N2CCC(N3CCC(O)CC3)CC2)cc1 [Compound 161] | **** (100% of endothelial cells vesicularize in cell shape and look flattened in morphology (indicating disintegration of the cell body)) | 100 | **** (100% of endothelial cells vesicularize in cell shape and look flattened in morphology (indicating disintegration of the cell body)) |  | 90 | 
6 | CCOC(=O)c1ccc2ncc(S(=O)(=O)c3ccc(OC)cc3)c(N(CCO)CCO)c2c1 [Compound 156] | 0 | 0 |  | 30 |  | 
7 | CCc1ccc(S(=O)(=O)c2cnc3ccc(OC(F)(F)F)cc3c2N2CCCN(CC(=O)O)CC2)cc1 [Compound 42] | 0 | 0 |  |  | 30 | 
8 | COc1ccc(S(=O)(=O)c2cnc3ccc(OC(F)(F)F)cc3c2N2CCCN(C)CC2)cc1OC [Compound 57] | * (50% or less of cells vesicularize in cell shape) | 60 | 0 |  | 40 | 
9 | CCCCOc1ccc(S(=O)(=O)c2cnc3ccc(SC)cc3c2N2CCCN(C)CC2)cc1 [Compound 160] | **** (100% of endothelial cells vesicularize in cell shape and look flattened in morphology (indicating disintegration of the cell body)) | 100 | **** (100% of endothelial cells vesicularize in cell shape and look flattened in morphology (indicating disintegration of the cell body)) | 100 |  | 
